{"source": "paper PMC5655428", "about": "“Discovery and pharmacological characterization of a new class of prolyl-tRNA synthetase inhibitor for anti-fibrosis therapy” (PLoS ONE, 2017)", "key": {"human PRS": {"target": "T1, human PRS (Homo sapiens, UniProt P07814)", "T1 construct": "His-Avi-tag (N); made in house; host or cells: E. coli BL21 (DE3)", "T1 sequence (P07814 998-1512)": "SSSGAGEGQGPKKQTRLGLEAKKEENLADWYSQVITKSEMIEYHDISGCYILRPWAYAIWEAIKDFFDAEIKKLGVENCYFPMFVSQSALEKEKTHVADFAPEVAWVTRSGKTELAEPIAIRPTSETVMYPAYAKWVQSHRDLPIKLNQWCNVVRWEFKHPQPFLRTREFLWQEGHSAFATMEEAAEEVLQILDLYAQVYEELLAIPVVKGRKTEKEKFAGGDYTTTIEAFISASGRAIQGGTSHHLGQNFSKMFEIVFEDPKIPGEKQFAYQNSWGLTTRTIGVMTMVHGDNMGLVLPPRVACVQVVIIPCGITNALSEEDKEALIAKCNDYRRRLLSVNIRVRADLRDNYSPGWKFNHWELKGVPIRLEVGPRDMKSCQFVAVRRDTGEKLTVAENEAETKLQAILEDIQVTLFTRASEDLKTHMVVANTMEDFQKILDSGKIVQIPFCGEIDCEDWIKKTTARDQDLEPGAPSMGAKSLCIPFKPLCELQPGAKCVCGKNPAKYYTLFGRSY", "experiment": "ATP/PPi exchange assay (PRS enzymatic inhibition)", "format": "biochemical", "conditions": "ATP/PPi exchange method; duplicate", "description": "The expression plasmid of human PRS (residues 998–1512, Genbank Accession No. NM_152621) was constructed in a pET21a vector (Novagen, San Diego, CA, USA) to express in E.coli BL21 (DE3) (Nippongene, Tokyo, Japan) as a fusion protein with His-Avi-tag at N-terminus. After culture, the cells were homogenized in a lysis buffer containing 50 mM Tris-HCl (pH 8.0 at 25°C), 150 mM NaCl, 5 U/mL Benzonase, 20 mM imidazole, and 1 mM DTT. Cell homogenates were centrifuged, and the supernatant was applied to NiNTA purification, followed by gel filtration with Superdex200. Proteins were stored in a buffer containing 50 mM Tris-HCl (pH 8.0 at 25°C), 150 mM NaCl, 10% glycerol, and 1 mM DTT at -80°C. The protein concentration was determined with the BCA Protein Assay Kit (Pierce Biotechnology, Inc., Rockford, IL, USA) according to the instruction manual.\nThe test compounds were dissolved in 5 μL of an assay buffer [50 mM Tris-HCl (pH 7.5), 20 mM KCl, 1 mM DTT, and 0.01% Tween 20] and incubated with 5 μL of 40 nM PRS enzyme dissolved in the assay buffer supplemented with 40 mM MgCl2 for 60 minutes. […] Radioactivities were measured using the TopCount detector (PerkinElmer).\nThe inhibitory activity was calculated as follows: % inhibition = (A—B) / (A—C) × 100, where, A, B, and C are signals with vehicle, test sample, and without reaction, respectively. […]"}, "[1]": {"experiment": "body weight and tolerability on topical application in mice", "conditions": "mouse; for Body weight day 0 / Body weight day 7: topical, mean ± SE (n = 4-8); for tolerability: dermal topical application", "experimental": "The experimenters were blinded to the treatments given to the animals and to the biochemical and histological analyses and the data analyses. Eight-week-old C3H/He male mice (weighing 23~28 g, Japan SLC, Inc., Hamamatsu, Japan) were used for all the in vivo experiments. […] These animals were maintained on a 12/12 h light/dark cycle with constant temperature (23 ± 2°C) under specific pathogen-free conditions. Standard chow diet and water were available ad libitum.\nAfter acclimatization for 1 weeks, animals were randomly divided according to body weight and treated for 3 to 5 consecutive days as follows. The ear and dorsal skin of mouse were intradermally injected with 20 μL (100 μL, dorsal skin) PBS or 500 ng TGF-β in PBS under anaesthesia with 3–4% sevoflurane. Injections were continued in this manner daily for 3 days (days 0, 1 and 2) or 5 days (days 0, 1, 2, 3 and 4). Treatment protocol included the daily topical application of T-3833261 or HF cream on the ear (40 μL/ear) 1 h before injections into the ear. A vehicle without compounds was applied to control mice. The topical material contained sorbitan sesquioleate (50 g), lanolin (50 g), liquid paraffin (250 g), propylene glycol (50 g), 90% lactic acid (1.5 g), T-3833261 (0.1, 0.3 and 1 g) or HF (0.1 g), and distilled water as the rest material. Topical application of compound was continued for 7 days. Mice were euthanized by cervical dislocation under sevoflurane anesthesia at 3 or 5 days after last TGF-β injection and the ear surrounding the TGF-β injection site was harvested with 8 μm biopsy punch under anesthesia."}, "[2]": {"system": "primary human skin fibroblast", "experiment": "mRNA expression of fibrosis-related genes by real-time quantitative RT-PCR", "format": "cell-based", "conditions": "1-300 nM, TGF-β 1 ng/mL, 24 h", "description": "Cells were allowed to adhere overnight before being replaced with serum-free FBM for 24 h. Serum-starved cells were first pretreated with samples in DMSO at concentrations between 1 and 300 nM for 30 min and then stimulated with 1 ng/mL TGF-β for 24 h. Then total RNA was collected from the cells by RNeasy 96 Kit (Qiagen, Valencia, CA, USA) and DNaseI (Qiagen) according to the manufacturer's protocol.\nTotal RNA was isolated from in vivo samples using ISOGEN II (Nippongene) according to the manufacturer's instructions. In vitro RNA samples were prepared as mentioned above. High Capacity cDNA Reverse Transcription Kit (Life Technologies, Carlsbad, CA, USA) was used for cDNA synthesis. Real-time quantitative RT-PCR reactions were performed as a TaqMan method on a ViiA 7 real-Time PCR System (Life Technologies), using TaqMan Fast Advanced Master Mix (Lifer Technologies) with specific primers on TaqMan Gene Expression Assays (Life Technologies) according to the manufacturer's manual. FAM-probed primers were used: COL1A1, Hs00164004_m1; α-SMA/ACTA2, Hs00426835_g1; fibroblast growth factor 2 (FGF2), Hs00266645_m1; Smad specific E3 ubiquitin protein ligase 2 (SMURF2), Hs00224203_m1; DDIT3, Hs00358796_g1; and glyceraldehyde 3-phosphate dehydrogenase (GAPDH), 4326317E for human in vitro cell assay. FAM-probed and TAMRA-quenched primers (Sigma-Aldrich Japan, Tokyo, Japan) were used: Col1a1, NM_007742; type I collagen alpha 2 (Col1a2), NM_007743; α-Sma/Acta2, NM_007392; and Gapdh, NM_008084 for mouse in vivo assay (S1 Table). The relative mRNA level of the target genes was calculated by the comparative threshold cycle (Ct) method using GAPDH (Gapdh) as an internal control for normalization. The fold change in the expression of each target gene was calculated by the following formula: relative quantification (RQ) = 2^-ΔΔCt."}}, "data": [{"smiles": "Cn1cc(-c2cc(F)cc(CNC(=O)c3nccc4nc(C5CCCC5)[nH]c34)c2)cn1", "note": "[T-3833261, 2-Cyclopentyl-N-(3-fluoro-5-(1-methyl-1H-pyrazol-4-yl)benzyl)-3H-imidazo[4,5-c]pyridine-4-carboxamide]", "values": [{"measurement": "IC50", "setting": "human PRS", "value": 3.6, "unit": "nM"}, {"measurement": "Body weight day 0", "setting": "[1]; 0.01% cream", "value": "22.9 ± 0.8", "unit": "g"}, {"measurement": "Body weight day 7", "setting": "[1]; 0.01% cream", "value": "23.8 ± 0.5", "unit": "g"}, {"measurement": "Body weight day 0", "setting": "[1]; 0.03% cream", "value": "23.1 ± 0.6", "unit": "g"}, {"measurement": "Body weight day 7", "setting": "[1]; 0.03% cream", "value": "23.4 ± 0.4", "unit": "g"}, {"measurement": "Body weight day 0", "setting": "[1]; 0.1% cream", "value": "22.4 ± 0.4", "unit": "g"}, {"measurement": "Body weight day 7", "setting": "[1]; 0.1% cream", "value": "22.2 ± 0.5", "unit": "g"}, {"measurement": "tolerability", "setting": "[1]", "value": "well-tolerated"}, {"measurement": "body weight of the mice after one week of continuous topical application", "setting": "[1]; topical cream", "value": "did not change"}, {"measurement": "COL1A1 mRNA expression", "setting": "[2]", "value": "suppressed expression of these fibrotic genes"}, {"measurement": "DDIT3 mRNA expression", "setting": "[2]", "value": "dose-dependently increased DDIT3 expression"}, {"measurement": "FGF2 mRNA expression", "setting": "[2]", "value": "dose-dependently increased SMURF2 and FGF2 expressions"}, {"measurement": "SMURF2 mRNA expression", "setting": "[2]", "value": "dose-dependently increased SMURF2 and FGF2 expressions"}, {"measurement": "α-SMA mRNA expression", "setting": "[2]", "value": "suppressed expression of these fibrotic genes"}]}, {"smiles": "O=C(CC1NCCCC1O)Cn1cnc2cc(Br)c(Cl)cc2c1=O", "note": "(stereo not drawn) [HF, Halofuginone, reference compound]", "values": [{"measurement": "IC50", "setting": "human PRS", "value": 8.7, "unit": "nM"}, {"measurement": "tolerability", "setting": "[1]", "value": "well-tolerated"}, {"measurement": "COL1A1 mRNA expression", "setting": "[2]", "value": "reduced to near the level of non-stimulated control"}, {"measurement": "DDIT3 mRNA expression", "setting": "[2]", "value": "dose-dependently increased DDIT3 expression"}, {"measurement": "FGF2 mRNA expression", "setting": "[2]", "value": "dose-dependently increased SMURF2 and FGF2 expressions"}, {"measurement": "SMURF2 mRNA expression", "setting": "[2]", "value": "dose-dependently increased SMURF2 and FGF2 expressions"}, {"measurement": "α-SMA mRNA expression", "setting": "[2]", "value": "suppressed TGF-β-induced expression of α-SMA"}]}]}
